{"source": "patent US20260272878A1", "about": "“ADAR1 INHIBITORS AND USES THEREOF” (THE WISTAR INSTITUTE OF ANATOMY AND BIOLOGY, priority 2023, published 2026)", "key": {"[1]": {"test_system": "ALT U2OS cells", "test": "Cell killing / viability, U2OS", "type": "cell-based", "protocol": "FIGS. 8A-8C show analysis of ADAR1i-124 effects in cancer cells. […] Viability was examined using the Apo Tox-Glo assay system. Control, 0.3% DMSO. Data: mean±SD (n=3). Significant differences identified by two-tailed Student's t-tests: *P<0.05, n.s., not significant. (FIG. 8B) Western blotting analysis of HeLa cells treated with ADAR1i-124 (10 μM).\n(§1) FIGS. 9A-9C show dose-dependent killing of cancer cells and activation of IFN signaling. […] YUMM1.7 (FIG. 9B) and HGS2 cells (FIG. 9C) were treated with ADAR1i-124 at 10 μM (12 hrs). RNA samples were analyzed by qRT-PCR to monitor ISG expression levels. Data: mean±SD (n=3). Significant differences were identified by two-tailed Student's t-tests: ***P<0.001.\n(§2) Dose-dependent selective killing of telomerase reactivated cancer cells was determined (FIG. 9A)."}, "[2]": {"test_system": "YUMM1.7", "test": "Dose-dependent killing, YUMM1.7", "type": "cell-based", "conditions": "mouse non-ALT cancer cells", "protocol": "as §1"}, "[3]": {"test_system": "human and mouse melanoma (telomerase reactivated) cell lines", "test": "Suppression of melanoma cell lines, comparison of inhibitors (not shown)", "type": "cell-based", "protocol": "as §2"}, "[4]": {"test_system": "YUMM1.7 cells", "test": "qRT-PCR of ISG expression (IFN signaling), YUMM1.7", "type": "cell-based, mouse", "conditions": "YUMM1.7, 10 μM, 12 hrs", "protocol": "as §1, §2"}, "[5]": {"test_system": "HGS2 cells", "test": "qRT-PCR of ISG expression (IFN signaling), HGS2", "type": "cell-based, mouse", "conditions": "HGS2, 10 μM, 12 hrs", "protocol": "as §1"}, "[6]": {"test_system": "YUMM1.7 cells", "test": "Cell death mechanism, pMLKL necroptosis marker, YUMM1.7", "type": "cell-based, mouse", "conditions": "YUMM1.7, pMLKL marker", "description": "FIGS. 10A-10C show ADAR1i-124 kills cancer cells via different cell death mechanism. (FIG. 10A) Differential expression of ADAR1p150 and ADAR1p110 in cancer cells. […] Annexin V and pMLKL were used as apoptosis and necroptosis markers, respectively. At least 200 cells were examined. Data: mean±SD (n=3). Significant differences were identified by two tailed Student's t-tests: *P<0.05, n.s., not significant. […] We plan to evaluate ADAR1 inhibitors in vivo in mouse tumor model systems by using these mouse cancer cell lines.\nThus, ADAR1i-124 has the potential to act as a “two birds with one stone” cancer therapeutic."}, "[7]": {"conditions": "mouse, in vivo, ip"}}, "note": "Entries after “also recorded” stand apart in the source; their conditions may differ. Like-named read-outs stand apart in the source and are kept apart here."}
{"smiles": "N#Cc1ccc(NC(=O)c2c(Cl)c3ccccc3n2CO)cc1", "note": "[ADAR1i-124]", "values": [{"measurement": "Killing of U2OS cells", "setting": "[1]", "value": "unaffected"}, {"measurement": "Killing of YUMM1.7 cells", "setting": "[2]", "value": "dose-dependently killed"}, {"measurement": "Suppression of human and mouse melanoma cell lines relative to other inhibitors", "setting": "[3]", "value": "more efficiently than ADAR1i-13 and ADAR1i-120"}, {"measurement": "ISG expression / IFN signaling activation", "setting": "[4]", "value": "upregulated expression of interferon stimulated genes (ISGs) including MDA5, CXCL9, and CXCL10; also recorded: upregulated expression of known ISGs; also recorded: activated type I IFN signaling; also recorded: Activation of the IFN signaling"}, {"measurement": "ISG expression / IFN signaling activation", "setting": "[5]", "value": "Activation of the IFN signaling"}, {"measurement": "Induction of necroptosis", "setting": "[6]", "value": "induced necroptosis; also recorded: killed via necroptosis"}, {"measurement": "Well tolerated dose", "setting": "[7]", "value": "up to 50 mg/kg"}, {"measurement": "Well tolerated dose", "setting": "[7]; 5 days", "value": "up to 50 mg/kg"}]}
